From a melting point compilation (Tetko et al.; mined from patent text by program, amines drawn as free bases though some values may be those of a salt)

Row | Structure (SMILES) | melting point [°C]
1 | O=CNc1cc(F)ccc1F | 112 to 114
2 | COCC12CCC(O)CC1CCC1C3CCC(=O)C3(C)CCC12 (configuration not stated) | 172 to 174
3 | O=c1[nH]c(=O)n(C2CC(F)C(CCl)O2)cc1C=CBr (configuration not stated) | 203
4 | NP(N)(=O)OCCCCl | 111 to 112
5 | NP(N)(=O)Nc1ccccc1[N+](=O)[O-] | 200
6 | COC(=O)Nc1c(C#N)cnn1-c1c(Cl)cc(SC(F)(F)F)cc1Cl | 145
7 | COc1cc(N2CCOCC2)ccc1Nc1nc(Nc2cc(F)cc3c2OCCNC3=O)ncc1Cl | > 230
8 | C=C1SC(=O)N(c2ccc3cc(-c4ccc(OC)c(C(C)(C)C)c4)ccc3c2)C1=O | 274 to 276
9 | COc1cc(OCc2ccccn2)ccc1/C=C/c1cc(/C=C/c2c[nH]c3ncccc23)n[nH]1 | 219 to 223
10 | Nc1nc2c(nc(C#Cc3ccc(C(F)(F)F)cc3)n2C2OC(CO)C(O)C2O)c(=O)[nH]1 (configuration not stated) | > 240
11 | Cc1ccc(-c2ccc(S(=O)(=O)Nc3onc(C)c3Br)s2)cc1 | 175
12 | CC(C)(C)c1ccc(SC(CCl)S(=O)(=O)c2ccccc2)cc1 (configuration not stated) | 67 to 69
13 | COCCCNc1cc(C(Sc2ccc(Cl)cc2)c2cc(F)ccc2F)c(Cl)cn1 (configuration not stated) | 146 to 148
14 | CN1CCC2(CC1)CN(c1ccccc1)c1ccccc12 | 90 to 92
15 | Cn1c(C2=CC(=O)c3ccccc3C2=O)ccc1C1=CC(=O)c2ccccc2C1=O | 320 to 321
16 | Cc1nc(N)c2nc(C)n(NCCCNS(C)(=O)=O)c2c1C | 215 to 217
17 | COc1ccc(CCNC(=O)CCC2(c3ccc(OC)c(OC)c3)SCCCS2)cc1OC | 135 to 136
18 | O=[N+]([O-])c1ccc(I)c(C(F)(F)F)c1 | 81 to 82
19 | O=C(Cl)c1cc(C(=O)Cl)c(C#Cc2ccccc2)cc1C#Cc1ccccc1 | 157 to 160
20 | CCNCC1CCN(c2c(F)cc3c(=O)c(C(=O)O)cn(C4CC4)c3c2C(F)(F)F)C1 (configuration not stated) | 239 to 241
21 | COc1ccc(C2COC(c3c(F)cccc3Cl)=N2)cc1-c1ccccc1 (configuration not stated) | 80.5 to 82
22 | OC1CSC(Oc2cncc(-c3ccccc3)c2)C(O)C1O (configuration not stated) | 169

Row | Structure (SMILES) | melting point [°C]
23 | Cc1ccc(S(=O)(=O)On2nnc3ccc([N+](=O)[O-])cc32)cc1 | 142 to 144
24 | O=P(O)(O)C(F)(F)P(=O)(O)O | 87 to 90
25 | Cc1cc(Cl)ccc1N1C(=O)CON(C)C1=S | 141 to 143
26 | O=C1CCC(=O)c2ccccc2N1 | 168 to 170
27 | O=c1[nH]c2cc(C(F)(F)F)ccc2c(-c2cc(Cl)ccc2O)c1NS(=O)(=O)C(F)(F)F | 267 to 270
28 | C=C(C)C(=O)OCCCCc1ccc(OC(F)(F)c2c(F)cc(-c3ccc(CCCCOC(=O)C(=C)C)cc3F)cc2F)cc1 | 128
29 | O=C(O)COc1nc(F)c(Cl)cc1Cl | 140 to 144
30 | O=[N+]([O-])c1ccccc1Cc1n[nH]c(Cl)n1 | 160 to 163
31 | COC(=O)c1c(-c2ccccc2C)c2cc(C)c(C)cc2[nH]c1=O | 288 to 289
32 | C#CCNc1nc2ccc(OC(F)(F)F)cc2s1 | 138 to 140
33 | O=C(Nc1cccc(-c2ccnc3c(C(=O)c4cccs4)cnn23)c1)c1ccc(Cl)cc1Cl | 132 to 134
34 | CCCc1nc2c(N)nc3cc(OCCn4cccc4)ccc3c2s1 | 158 to 160
35 | c1ccc2nc(COc3cccc4[nH]ccc34)ccc2c1 | 143 to 144
36 | CCn1c(=O)n(-c2ccc(N3CCn4c3nc3cccnc34)cc2)c2ncccc21 | 255 to 256
37 | N#Cc1cc2c(c(C(=O)O)c1)NCCC2 | 238
38 | C=CCOc1cc2c(cc1C(C)=O)CCCC2 | 62 to 63
39 | O=C(NC(Cc1c[nH]c2ccccc12)C(=O)C(=O)CCl)OC1C2CC3CC(C2)CC1C3 (configuration not stated) | 56 to 63
40 | CC1(C)OC(=O)Nc2ccc(I)cc21 | 196 to 197
41 | COc1cc(-c2nc3ccc(OCCN4CCN(C)CC4)cc3n2Cc2ccccc2)cc(OC)c1OC | 113
42 | O=C(NCCO[N+](=O)[O-])c1cscn1 | 105 to 108
43 | Cc1c(CCc2ccc3nc(N)oc3c2)nc2cc(CN)ccn12 | 218 to 221

The next lines start with the values.

Row | melting point [°C] | Structure (SMILES)
44 | 72 to 73 | CN(C)CCNC(=O)N1CCC(Oc2ccccc2)C1 (configuration not stated)
45 | 189 | CCCCC(CC)CN(CCC)c1ccc(C2=C(C#N)C(=C(C#N)C#N)NC2=O)cc1 (configuration not stated)
46 | 92 to 94 | COc1ccc2c(c1)/C(=C/CNC(C)=O)CCC2
47 | 102 | Nc1ccc(Oc2ccccc2C(=O)Oc2ccccc2)cc1
48 | 117 to 120 | CCC(CC)(CC(=O)Nc1cccc(SCc2ccc3cc(F)ccc3n2)c1)C(=O)O
49 | 154 | CCCCNC(=O)Oc1cccc(NC(=O)NC2CC2)c1
50 | 90 to 92 | CCC(C1OC(=O)c2ccccc21)[N+](=O)[O-] (configuration not stated)
51 | 56 to 58 | CCCOC(C)c1ccc(C(=O)O)cc1 (single isomer, unassigned; (+))
52 | 129 to 131 | COC(=O)c1ccc2c(c1)Sc1ccc(F)cc1C(=O)C2
53 | 88 to 89 | CO/C=C(/C(=O)OC)n1cccc1
54 | 188 to 189 | CCOc1ccc(C(=NO)c2ccc(OC)c(Cl)c2Cl)c(F)c1
55 | 170 to 172 | CC1(C)Cc2cc(C(=O)O)sc2C1
56 | 71.8 to 73.1 | CCOC(=O)CC(=O)c1cc(Cl)ccc1O
57 | 180 to 181 | O=C1CC(c2ccccc2)c2ccccc2CN1 (configuration not stated)
58 | 70 to 80 | CCN(C(=O)c1ccccc1)C(=NC(=O)c1ccccc1)NCc1ccc(S(N)(=O)=O)cc1
59 | 70 to 72 | CCCc1ccc(-c2ncccc2S(=O)(=O)Nc2ncc(C)nc2OC)cc1
60 | 213 to 214 | Cc1cc(C#N)c(O)c(C(=O)O)c1
61 | 253 to 255 | Cn1cc(C(=O)O)c(Nc2ccc(F)cc2F)cc1=O
62 | 159 | CC(C)c1nn(C(=O)NC(C)(C)CCc2ccccc2Cl)c(=O)n1N
63 | 235 to 247 | O=C(O)c1ccccc1Nc1ccc(Cl)cc1[N+](=O)[O-]

Row | melting point [°C] | Structure (SMILES)
64 | 80 to 81 | CC(C)(C)c1nnc(Oc2ccc(N)cc2)o1
65 | 217 to 220 | C#CCN(Cc1ccc2nc(NC(=O)C(C)(C)C)[nH]c(=O)c2c1)c1ccc(S(=O)(=O)N(C)C)cc1
66 | 148 | NC(=O)C1(Nc2ccc(I)cc2)CCCC1
67 | 225 to 226 | Cc1cnc(C(=O)c2[nH]c3cc(Cl)ccc3c2CC(=O)O)s1
68 | 166 to 168 | CCOC(=O)/C(C)=C(/C)c1cn(C(c2ccccc2)(c2ccccc2)c2ccccc2)cn1
69 | 164 to 167 | COC(=O)NC1Cc2ccc([N+](=O)[O-])cc2C1OC(C)=O (configuration not stated)
70 | 85 to 90 | COc1ccc(C(=O)N(C)c2ccc(CO)cc2)cc1
71 | 235 to 236 | COc1cc(NC(C)=O)c(Cl)cc1-c1nn(-c2ccc(C(F)(F)F)cc2)c(=O)o1
72 | 95.5 to 97.3 | O=C(Cc1ccncc1)c1ccc(Cl)cc1
73 | 69 to 71 | CCCCCCCOc1cc2c(cc1C(C)=O)C(C)(C)CCS2
74 | 112 to 114 | NC(=O)C(CC1CCCC1)c1ccc(Cl)c([N+](=O)[O-])c1 (configuration not stated)
75 | 120 | O=C1CCCN1C(=O)NCCS(=O)c1ccccn1 (configuration not stated)
76 | 151 | COC(=O)C(c1ccccc1)C1CCN(c2ccc(NC(=O)c3ccccc3-c3ccc(C(F)(F)F)cc3)cc2)CC1 (configuration not stated)
77 | 108 to 109 | COC(=O)NC1CCc2sccc2C1 (configuration not stated)
78 | 54.5 to 56 | COCCCCC(=O)c1ccc([N+](=O)[O-])c(Cl)c1
79 | 293 to 296 | CC(C)(CO)c1ccc(C(=O)Nc2cn3cc(-c4cn[nH]c4)ccc3n2)cc1
80 | 138 to 140 | CCCCn1c(=O)c(NC(=O)Nc2c(C(C)C)cccc2C(C)C)c(-c2cccc(OCCCCl)c2)c2cccnc21
81 | 271 to 272 | O=C(O)c1ccc2[nH]c3ccccc3c2c1
82 | 250 | CCSc1nc(C)n(Cc2ccc(-c3ccccc3C(=O)O)cc2)c1CO
83 | 119 to 122 | CC(Br)=C(c1ccc(N(C)C)cc1)c1ccc(N(C)C)cc1

Row | melting point [°C] | Structure (SMILES)
84 | 115 to 116 | OC(CC1CCN(CC2CC2)CC1)(c1ccccc1)c1ccc(F)cc1 (configuration not stated)
85 | 166 to 168 | CCCOCc1nc(C(C)(C)O)c(C(=O)O)n1Cc1ccc(-c2ccccc2-c2nnn[nH]2)cc1
86 | 140 to 141 | COC1=CC(=O)N/C1=C\C(C)C
87 | 85 to 87 | C=C(C)COc1ccc(C(=O)C=Cc2ccc(N(C)C)cc2)c(O)c1
88 | 174 | COc1ccc(S(=O)(=O)CC(CS(=O)(=O)c2ccc(OC)cc2)C(=O)NO)cc1
89 | 179 to 180 | CCOC(=O)C(Cc1c[nH]c2ccccc12)(NC=O)C(=O)OCC
90 | 258 to 260 | O=C(CCNc1c(C(=O)O)[nH]c2cc(Cl)ccc12)c1cccc(F)c1
91 | 85 | COc1ccc([C@@H]2OC(=O)[C@H](Cc3ccccc3)N2C(=O)OCc2ccccc2)cc1
92 | 104 to 106 | CNC(=O)c1cccc(-c2cccc3cc(Cc4cccc(C(F)(F)F)c4)sc23)c1
93 | 126 to 130 | CC(C)CC(C=O)NC(=O)C(Cc1c[nH]cn1)NC(=O)C1Cc2c([nH]c3ccccc23)CN1C(=O)OCc1ccccc1 (configuration not stated)
94 | 50 | CC(C)Oc1ccc2c(c1)N(CCCN1CCC(CCO)CC1)c1cccc(S(C)(=O)=O)c1S2
95 | 219 to 220 | Cc1ccc(C(=O)NN=C(N)CS(=O)(=O)c2ccccc2)o1
96 | 82 to 83 | CCCc1sc2nc(CN(CC)CC)c(C(=O)OCC)c(-c3ccc(Cl)cc3)c2c1C
97 | 156 to 159 | O=C(Nc1ccccc1Sc1ccccc1-c1nnn[nH]1)c1ccc(OCCCCc2ccccc2)cc1
98 | 143 to 145 | CCNc1cc(Oc2ccc(N)cc2)ncn1
99 | 214 to 216 | CC(=O)N1c2ccc(O)cc2C(C)=CC1(C)C
100 | 209 to 210 | COC(=O)c1c(C)[nH]c(C)c1C1=CC(=O)c2ccccc2C1=O
101 | 217 to 218 | CC(=O)c1cccc(C2=C(c3ccc(S(N)(=O)=O)cc3)OC(C)(C)C2=O)c1
102 | 141 to 142 | COC(=O)C1C(N2C(=O)c3ccccc3C2=O)C(=O)N1Cc1ccc(OC)cc1 (configuration not stated)
